Reference: patent US20210024583A1, “COMPOSITIONS AND METHODS FOR PEPTIDE MEDIATED OLIGONUCLEOTIDE DELIVERY TO THE CENTRAL NERVOUS SYSTEM” (The Regents of the University of California, priority 2019, published 2021)
“Also recorded” adds a separate entry of the source. Where no end group is shown, it is not given here.

Legend:
[1] = Brain distribution of FITC labeled siαSyn after single i.p. injection (co-labeling NeuN, GFAP); type: in vivo, mouse
Procedure: To determine the co-localization between fluorescein isothiocyanate (FITC)-siαSyn and cellular markers, double labeling experiments were performed as previously described (44, 45). […] vibratome sections were immunolabeled with the rabbit polyclonal antibody against α-synuclein (Chemicon, affinity purified polyclonal), NeuN (neuronal marker, Millipore) or GFAP (astroglial marker, Chemicon) and the immunoreactive structures were detected with the Tyramide Signal Amplification™-Direct (Red) system (NEN Life Sciences) while the siRNA was directly visualized by the appended FITC label. Sections were imaged with a Zeiss 63X™ (N.A. 1.4) objective on an Axiovert 35™ microscope (Zeiss) with an attached MRC1024™ LSCM system (BioRad).
4 hours after injection, mice were sacrificed, whole brain removed and fixed. (A,B) Sections were stained for the neuronal marker NeuN and the nuclear stain DAPI and then visualized for co-localization with the FITC labeled siRNA. (D,E) Sections were stained for the astrocytic marker GFAP and the nuclear stain DAPI and then visualized for co-localization with the FITC labeled siRNA.

α-synuclein = α-synuclein levels and co-localization in cortex after single i.p. FITC siαSyn:peptide; type: in vivo, mouse; conditions: single i.p. injection, 4 hours
Procedure: To determine the co-localization between fluorescein isothiocyanate (FITC)-siαSyn and cellular markers, double labeling experiments were performed as previously described (44, 45). 40 p.m-thick vibratome sections were immunolabeled with the rabbit polyclonal antibody against α-synuclein (Chemicon, affinity purified polyclonal), NeuN (neuronal marker, Millipore) or GFAP (astroglial marker, Chemicon) and the immunoreactive structures were detected with the Tyramide Signal Amplification™-Direct (Red) system (NEN Life Sciences) while the siRNA was directly visualized by the appended FITC label. Sections were imaged with a Zeiss 63X™ (N.A. 1.4) objective on an Axiovert 35™ microscope (Zeiss) with an attached MRC1024™ LSCM system (BioRad) [22].
4 hours after injection, mice were sacrificed, whole brain removed and fixed. Sections were stained for α-synuclein and the nuclear marker, DAPI and then visualized for co-localization with the FITC labeled siRNA.

RLTRKRGLKLAGGGGGRRRRRRRRR [ApoB^11]
co-labeling of FITC labeled siαSyn RNA with astrocyte marker GFAP ([1]; 4 hours after i.p. injection): co-labeled with the astrocyte marker, GFAP in the cell body but not in the processes | cellular localization of FITC labeled siαSyn in brain (co-labeling with NeuN, GFAP) ([1]; 4 hours after single i.p. injection, 50 μg, siRNA conjugated to the named peptide): delivered siαSyn RNA to neuronal cells; also recorded: primarily to neurons and only to a lesser extent the astrocytes | FITC labeled siRNA delivered to NeuN positive neurons, compared with C2-9r peptide ([1]; α-syn tg mice, 4 hours after i.p. injection): significantly greater | co-localization of FITC label of siαSyn with αSyn expressing cells (α-synuclein): co-localized with αSyn expressing cells
